Entries after “also recorded” stand apart in the source; their conditions may differ. Read-outs that look alike come from different tables or passages of the source.
Tests used:
[1] = tested on: Skw3 control transductant 17D (Abacavir-allergic donor); test: TCR-transductant stimulation assay, control transductant 17D; type: cell-based, human; conditions: control 17D, 24 h, heterologous EBV-transformed B cells, no drug 1.4
Source text: Skw3 cell lines (Leibniz Institute DSMZ, Brunswick, Germany, (50)) were transduced as described previously (51). […] The resulting retroviruses were used to transduce the TCR-defective Skw3 cell line, which also expresses the human CD8 coreceptor. The TCR-transduced cells outgrowing in selective medium were picked, and the expression of the correct TCR α and β was further assessed by flow cytometry, using a FACS-Canto-I device (BD-Biosciences, San Jose, CA, USA). The transduced cells with stable TCR expression were selected for assessment of reactivity and specificity, which was measured by TCR-induced CD69 expression. Skw3 cell lines expressing the cognate TCR α and β chains were cocultured with autologous EBV-transformed B-lymphoblastoid cell lines (52) at 1:2 ratio at 37° C. Tested drugs were added to the cocultures with the indicated concentrations. After 24 h, cells were stained with anti-human CD3 (Biolegend) and anti-human CD69 (Biolegend) and analysed by flow cytometry. […] Experiments were repeated at least 2 times. […] Heterologous EBV-transformed B cells were also used to stimulate control transductants.

[2] = tested on: Skw3 control transductant AnWe A1 (Allopurinol-allergic donor); test: TCR-transductant stimulation assay, control transductant AnWe A1; type: cell-based, human; conditions: 24 h, heterologous EBV-transformed B cells, no drug 4.3; for % of CD69 expression in CD3+ transfectants, Concentration 2: Allopurinol/Oxypurinol 62.5 μg/ml; for % of CD69 expression in CD3+ transfectants, Concentration 3: Allopurinol/Oxypurinol 250 μg/ml
Source text: (§1) In brief, rearranged human variable TCR α- and β genes identified by TCR sequencing were synthesized by custom gene synthesis (GeneUniversal, Newark, Delaware, USA) and cloned into retroviral pMSCV Vector (Takara Bio USA Inc, Mountain View, California, USA) containing puromycin and neomycin resistance genes respectively.
(§2) Levels of CD69 expression were monitored in 10,000 CD3^+ events. Experiments were repeated at least 2 times.
(§3) Skw3 cell lines engineered for the expression of TCRs bearing Vα and Vβ chains from top clones found in patients TEN-3,-7,-10 and -15 were stimulated in vitro with EBV-transformed B cells in presence of graded doses of different drugs, or left unpulsed. […] Results from control transductants generated from Abacavir- (17D), Allopurinol-(AnWeAl) or Sulfamethoxazole- (UNO H13) allergic donors (53) (51) (7) are also shown. Bold and underlined values indicate >2 or >1.5 CD69 expression fold increase versus unpulsed cultures.

[3] = tested on: TCRαβ Skw3 transfectant C1 (TCR of top clone of patient TEN-3); type: cell-based, human; conditions: 24 h with autologous EBV-transformed B cells, no drug 2.3; for % of CD69 expression in CD3+ transfectants, Concentration 2: Allopurinol/Oxypurinol 62.5 μg/ml, Sulfamethoxazole 100 μg/ml; for % of CD69 expression in CD3+ transfectants, Concentration 3: Allopurinol/Oxypurinol 250 μg/ml, Sulfamethoxazole 200 μg/ml
Source text: as §1, §2, §3

[4] = tested on: TCRαβ Skw3 transfectant C4 (TCR of top clone of patient TEN-15); type: cell-based, human; conditions: for % of CD69 expression in CD3+ transfectants, Concentration 1 / % of CD69 expression in CD3+ transfectants, Concentration 2 / % of CD69 expression in CD3+ transfectants, Concentration 3: transfectant C4, 24 h; for % of CD69 expression in CD3+ transfectants, Concentration 1: Levofloxacin (no drug 6.0) / Metronidazole (no drug 6.3) 25 μg/ml; for % of CD69 expression in CD3+ transfectants, Concentration 2: Levofloxacin (no drug 6.0) / Metronidazole (no drug 6.3) 50 μg/ml; for % of CD69 expression in CD3+ transfectants, Concentration 3: Levofloxacin (no drug 6.0) / Metronidazole (no drug 6.3) 100 μg/ml; for CD69 expression response of transduced Skw3 cells to drug (in words): transductant from patient TEN-15
Source text: Skw3 cell lines (Leibniz Institute DSMZ, Brunswick, Germany, (50)) were transduced as described previously (51). […] The resulting retroviruses were used to transduce the TCR-defective Skw3 cell line, which also expresses the human CD8 coreceptor. The TCR-transduced cells outgrowing in selective medium were picked, and the expression of the correct TCR α and β was further assessed by flow cytometry, using a FACS-Canto-I device (BD-Biosciences, San Jose, CA, USA). The transduced cells with stable TCR expression were selected for assessment of reactivity and specificity, which was measured by TCR-induced CD69 expression. Skw3 cell lines expressing the cognate TCR α and β chains were cocultured with autologous EBV-transformed B-lymphoblastoid cell lines (52) at 1:2 ratio at 37° C. Tested drugs were added to the cocultures with the indicated concentrations. After 24 h, cells were stained with anti-human CD3 (Biolegend) and anti-human CD69 (Biolegend) and analysed by flow cytometry. […] Experiments were repeated at least 2 times. […] Then, the productive rearranged TCRα and TCRβ chains were transduced into Skw3 cells, a TCR defective lymphoma line (28) (data not shown). After verification of sustained and stable TCR expression (data not shown), transduced Skw3 cells were stimulated with the culprit (or control) drug in presence of autologous Epstein Barr Virus (EBV)-transformed B cells generated from patient's PBMCs. The following day, we measured CD69 expression at the surface of Skw3 cells, as marker for TCR stimulation. […] Heterologous EBV-transformed B cells were also used to stimulate control transductants.

human CD38+CD8+ T cells = test: Model of graft versus host versus disease (GVHD): NGS mice reconstituted with PBMCs from a healthy donor; type: in vivo, mouse
Source text: NGS mice were reconstituted with 10×10^6 PBMCs from a healthy donor, and treated by two-weekly injections of an anti-CD38+ mAb (Daratumumab, at 100 or 300 microg/mouse). Control group received PBS. Results depict the percentage +/−SD of CD38+ fraction among human CD8+ T cells present in the spleen, as evaluated by flow cytometry 28 days after PBMCs injection.
NGS mice were reconstituted with 10×10^6 PBMCs from a healthy donor, and treated by two-weekly injections of an anti-CD38+ mAb (Daratumumab, at 100 or 300 microg/mouse). Control group received PBS. The percentage of humanization was measured by flow cytometry at day 5 and at day 12 after PBMC injection. It was calculated by dividing the percentage of human blood CD45+ cells/the percentage of total (mouse+human) blood CD45+ cells.
To this end, NGS mice were reconstituted with 10×10^6 peripheral blood mononuclear cells (PBMCs) from a healthy donor, and treated by two-weekly injections of daratumumab (at 100 or 300 microg/mouse). Control group received PBS. Reconstitution is generally assessed by measuring the ratio of humanization (calculated by dividing the % of human blood CD45+ cells/the % of […]). A high ratio of humanization (>50-60%) classically correlates with the appearance of GVHD symptoms, approximately 1 month after transfer.

[5] = tested on: cytotoxic CD8+CD38+ T cells; test: TEN preclinical model: NSG mice transferred with PBMCs from a TEN patient and given lamotrigine; daratumumab evaluation; type: in vivo, mouse; conditions: for depletion of already expanded CD38+ cells (CD8+CD38+ T cells) / depletion of cytotoxic CD8+CD38+Granzyme B+Granulysin+ T cell subset: curative mode: injections from day 29; for depletion of already expanded CD38+ cells (CD8+CD38+ T cells): blood (FIG. 16); for depletion of cytotoxic CD8+CD38+Granzyme B+Granulysin+ T cell subset: blood (FIG. 17); for formation/expansion of cytotoxic CD8+CD38+Granzyme B+Granulysin+ T cell subset: blood (FIG. 15A); for formation/expansion of CD4+CD38+ and CD8+CD38+ T cells: preventive mode: i.p. 200 mg twice weekly from day 4, blood and spleen, throughout the protocol, versus control isotype (FIG. 13); for depletion of cytotoxic cells expressing the TCRVbeta7.1+ chain (CD8+Vbeta7.1+ T cells): spleen at day 31, versus isotype-treated controls (FIG. 12)
Description: (§4) NSG animals were adoptively transferred at day 0 with 1.10^6 millions PBMCs collected from a TEN patient, and successively administrated with lamotrigine (the culprit drug; every day, from day 4. In parallel, NSG mice were injected i.p. with […] of daratumumab or a control isotype twice weekly, starting mAb injections from day 4 (preventive mode). Results depict the kinetic of human CD8+Vbeta7.1+ T cell expansion measured by flow cytometry in the spleen of NSG mice at day 31. Results are expressed as mean and individual % of Vbeta7.1+ cell fraction among total CD8+ T cells. Ten mice per group were used in this experiment. Of note, 3.2% of Vbeta7.1+ cells were detected in CD8+ T cells at the time of cell transfer (day 0).
as §4, with “CD4+CD38+/− and CD8+CD38+/−” for “CD8+Vbeta7.1+”, “blood” for “spleen”, “throughout the protocol.” for “at day 31.”, “number” for “%”, “CD38+(A) and CD38− (B) cells/mL blood.” for “Vbeta7.1+ cell fraction among total CD8+ T cells.”, “experiment.” for “experiment. Of note, 3.2% of Vbeta7.1+ cells were detected in CD8+ T cells at the time of cell transfer (day 0).”
(§5) NSG animals were adoptively transferred at day 0 with 1.10^6 millions PBMCs collected from a TEN patient, and successively administrated with lamotrigine (the culprit drug; or vehicle by oral gavage, every day, from day 4. In parallel, NSG mice were injected i.p. with […] of daratumumab or a control isotype twice weekly, starting mAb injections from day 4 (preventive mode). Results depict the kinetic of human CD4+ and CD8+ T cell expansion measured by flow cytometry in the blood of NSG mice throughout the protocol. Results are expressed as mean and individual number of CD4+ and CD8+ T cells/mL blood. Ten mice per group were used in this experiment.
as §5, with “drug; 0.1 mg/kg/day),” for “drug; or vehicle by oral gavage,”, “human cytotoxic CD8+CD38+/−GranzymeB+Granulysin+” for “human CD4+ and CD8+”, “of CD8+CD38+GranzymeB+Granulysin+” for “of CD4+”, “and CD8+CD38+GranzymeB+Granulysin+ cells/mL blood (A). Details for total CD8+GranzymeB+Granulysin+” for “and CD8+”, “T cells are also shown (B).” for “T cells/mL blood.”
NSG animals were adoptively transferred at day 0 with 1.10^6 millions PBMCs collected from a TEN patient, and successively administrated with lamotrigine (the culprit drug; every day, from day 4. In parallel, NSG mice were injected i.p. with […] of daratumumab or a control isotype twice weekly, starting mAb treatment from day 4 (preventive mode) or from day 29 (curative mode). Results depict the kinetic of human CD8+CD38+/− T cell expansion measured by flow cytometry in the blood of NSG mice throughout the protocol. Results are expressed as mean and individual % of CD38+ and CD38− fractions among total CD8+ T cells. Five mice per group were used in this experiment. […]

[6] = 300 microg/mouse, 2 times a week

Nc1nc(NC2CC2)c2ncn([C@H]3C=C[C@@H](CO)C3)c2n1 [Abacavir]
% of CD69 expression in CD3+ transfectants, Concentration 1 ([1]; Abacavir 1 μg/ml, Pantoprazole 12.5 μg/ml): 93.2% | % of CD69 expression in CD3+ transfectants, Concentration 2 ([1]; Abacavir 10 μg/ml, Pantoprazole 25 μg/ml): 88.9% | % of CD69 expression in CD3+ transfectants, Concentration 3 ([1]; Abacavir 20 μg/ml, Pantoprazole 50 μg/ml): 93.1%

Oc1ncnc2[nH]ncc12 [Allopurinol]
% of CD69 expression in CD3+ transfectants, Concentration 2 [2]: 17.1% | % of CD69 expression in CD3+ transfectants, Concentration 3 [2]: 26.4% | % of CD69 expression in CD3+ transfectants, Concentration 2 [3]: 2.2% | % of CD69 expression in CD3+ transfectants, Concentration 3 [3]: 3.05%

C[C@H]1COc2c(N3CCN(C)CC3)c(F)cc3c(=O)c(C(=O)O)cn1c23 [Levofloxacin]
% of CD69 expression in CD3+ transfectants, Concentration 1 [4]: 5.6% | % of CD69 expression in CD3+ transfectants, Concentration 2 [4]: 5.4% | % of CD69 expression in CD3+ transfectants, Concentration 3 [4]: 4.4%

Cc1ncc([N+](=O)[O-])n1CCO [Metronidazole]
CD69 expression response of transduced Skw3 cells to drug (in words) [4]: failed to respond | CD69 expression response of transduced Skw3 cells to drug (in words) ([4]; listed as metronidazole): failed to detect robust CD69+ expression | % of CD69 expression in CD3+ transfectants, Concentration 1 [4]: 5.7% | % of CD69 expression in CD3+ transfectants, Concentration 2 [4]: 5.4% | % of CD69 expression in CD3+ transfectants, Concentration 3 [4]: 6.0%

O=c1[nH]c(=O)c2c[nH]nc2[nH]1 [Oxypurinol]
% of CD69 expression in CD3+ transfectants, Concentration 2 [2]: 5.0% | % of CD69 expression in CD3+ transfectants, Concentration 3 [2]: 5.75% | % of CD69 expression in CD3+ transfectants, Concentration 2 [3]: 22.9% | % of CD69 expression in CD3+ transfectants, Concentration 3 [3]: 39.6%

Cc1cc(NS(=O)(=O)c2ccc(N)cc2)no1 [Sulfamethoxazole]
% of CD69 expression in CD3+ transfectants, Concentration 2 [3]: 1.3% | % of CD69 expression in CD3+ transfectants, Concentration 3 [3]: 1.4%

Daratumumab
GVHD development, higher regimen (human CD38+CD8+ T cells; [6]): failed to prevent GVDH development | T cell expansion, higher regimen (human CD38+CD8+ T cells; [6]): transiently inhibited T cell expansion | expansion of human cells (ratio of humanization) (human CD38+CD8+ T cells; day 12, 7 days after the initial daratumumab injection, blood (FIG. 8)): transiently inhibited the expansion of human cells | expansion of human cells (ratio of humanization) (human CD38+CD8+ T cells; day 19, 14 days after the initial daratumumab injection): inhibition was lost | development of the GVHD (human CD38+CD8+ T cells; day 28, two-weekly injections, 100 or 300 microg/mouse): failed to hamper the development of the GVHD | human CD38+CD8+ T cell levels in blood (human CD38+CD8+ T cells; murine GVHD model): reduction of human CD8+CD38+ T cell levels in blood; also recorded: reduction of human CD38+CD8+ T cells levels in blood | depletion of CD38+ cells (CD38+ fraction among human CD8+ T cells) (human CD38+CD8+ T cells; two-weekly injections, 100 or 300 microg/mouse, spleen, flow cytometry, 28 days after PBMCs injection (FIG. 7), preliminary experiments): depleted CD38+ cells | depletion of already expanded CD38+ cells (CD8+CD38+ T cells) [5]: acutely depleted the CD38+ cells that have already expanded | depletion of already expanded CD38+ cells (CD8+CD38+ T cells) ([5]; listed as Daratumamub): efficiently depleted | depletion of cytotoxic CD8+CD38+Granzyme B+Granulysin+ T cell subset [5]: acutely depleted | depletion of cytotoxic CD8+CD38+Granzyme B+Granulysin+ T cell subset ([5]; listed as Daratumamub): efficiently depleted | expansion of T cell subsets which do not express CD38 marker ([5]; preventive mode, from day 4 (FIG. 13B)): did not avoid the progressive expansion of some T cell subsets | formation/expansion of cytotoxic CD8+CD38+Granzyme B+Granulysin+ T cell subset ([5]; preventive mode, from day 4): preventing the formation of cytotoxic CD8+CD38+Granzyme B+Granulysin+ T cell subset | formation/expansion of cytotoxic CD8+CD38+Granzyme B+Granulysin+ T cell subset ([5]; preventive mode, from day 4, listed as Daratumamub): strongly inhibited the expansion | accumulation of cytotoxic T cells (total CD8+GranzymeB+Granulysin+) ([5]; preventive mode, from day 4, blood (FIG. 15B)): severely impaired the accumulation of cytotoxic T cells | global T cell expansion (CD4+ and CD8+ T cells/mL blood) ([5]; preventive mode, from day 4, versus control isotype (FIG. 14)): Lower expansion; also recorded: dramatically delayed and impaired the global T cell expansion | formation/expansion of CD4+CD38+ and CD8+CD38+ T cells [5]: efficiently and extensively prevented the formation of CD4+CD38+ and CD8+CD38+ T cells | formation/expansion of CD4+CD38+ and CD8+CD38+ T cells ([5]; listed as Daratumamub): blocked the expansion | depletion of cytotoxic cells expressing the TCRVbeta7.1+ chain (CD8+Vbeta7.1+ T cells) ([5]; preventive mode): strong depletion | depletion of cytotoxic cells expressing the TCRVbeta7.1+ chain (CD8+Vbeta7.1+ T cells) ([5]; preventive mode, listed as Daratumamub): preferentially depleted

From US20240003879A1, “METHODS FOR DIAGNOSIS AND MONITORING OF TOXIC EPIDERMAL NECROLYSIS” (INSERM (INSTITUT NATIONAL DE LA SANTÉ ET DE LA RECHERCHE …, priority 2020, published 2024)
